Assay results published in patent US7125848B2, “Methods of treating non-inflammatory gastrointestinal tract disorders using Cav2.2 subunit calcium channel modulators” (Dynogen Pharmaceuticals, Inc., priority 2003, dated 2006).

Test system: HVA calcium channel currents in GI tract afferent DRG neurons
Type: cell-based, rat

Q: With “Omega-conotoxin GVIA (CKSHYPGSSCSHYPTSYNCCRSCNHYPYTKRCY; VARIANT (0)...(0) omega-conotoxin GVIA; listed as Conus geographus)” as the substance, how does the “calcium current amplitude as percentage of control amplitudes” value read?
A: 59±4%
